Data on 60 compounds can be found in article PMC3265452 (PLoS Neglected Tropical Diseases, 2012).

Where a name gives a salt, the structure may show the parent alone.

The target in the first test is AaDOP2 (Aedes aegypti, UniProt H6D5H2). Briefly: AaDOP2 antagonist screen of the LOPAC1280 library (HEK-CRELuc-Aadop2 cells, luminescence). Format: cell-based.
AaDOP2, sequence (H6D5H2 1-476): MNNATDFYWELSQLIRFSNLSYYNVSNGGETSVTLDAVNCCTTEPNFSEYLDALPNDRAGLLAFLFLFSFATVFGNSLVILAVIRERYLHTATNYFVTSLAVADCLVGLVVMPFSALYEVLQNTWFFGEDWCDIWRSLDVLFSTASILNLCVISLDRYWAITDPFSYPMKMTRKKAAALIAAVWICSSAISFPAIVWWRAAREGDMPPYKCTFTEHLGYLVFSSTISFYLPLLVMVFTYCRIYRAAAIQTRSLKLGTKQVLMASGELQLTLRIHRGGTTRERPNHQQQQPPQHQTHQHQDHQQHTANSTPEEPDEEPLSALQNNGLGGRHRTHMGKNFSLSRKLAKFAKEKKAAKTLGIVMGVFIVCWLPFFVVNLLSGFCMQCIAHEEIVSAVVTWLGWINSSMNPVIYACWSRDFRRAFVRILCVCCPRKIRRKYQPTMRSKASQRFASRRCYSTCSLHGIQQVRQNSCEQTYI
Settings: not given
With `COc1cc2ncnc(Nc3ccc(O)cc3)c2cc1OC` [Compound 1260, WHI-P131], the “Compound effect (percent receptor signaling in presence of test compound, relative lux units relative to the SCH23390 control)” value is 90.

In the case of `COC[C@H]1OC(=O)c2coc3c2[C@@]1(C)C1=C(C3=O)[C@@H]2CCC(=O)[C@@]2(C)C[C@H]1OC(C)=O` [Compound 1261, Wortmannin from Penicillium funiculosum], the “Compound effect (percent receptor signaling in presence of test compound, relative lux units relative to the SCH23390 control)” value is on record as 42.

`CC(N)=NCc1cccc(CN)c1.Cl.Cl` [Compound 1262, 1400W dihydrochloride]: the “Compound effect (percent receptor signaling in presence of test compound, relative lux units relative to the SCH23390 control)” value is reported as 96.

`CS(=O)(=O)O.Cc1c(C(=O)c2cccc3ccccc23)c2cccc3c2n1[C@H](CN1CCOCC1)CO3` [Compound 1264, (R)-(+)-WIN 55,212-2 mesylate]: the “Compound effect (percent receptor signaling in presence of test compound, relative lux units relative to the SCH23390 control)” value amounted to 58.

In the case of `C#C[C@]1(O)CC[C@H]2[C@@H]3CCC4=Cc5nc6nc7ccccc7n6cc5C[C@]4(C)[C@H]3CC[C@@]21C` [Compound 1265, WIN 62,577], the “Compound effect (percent receptor signaling in presence of test compound, relative lux units relative to the SCH23390 control)” value amounted to 59.

As for `Cc1cccc(C)c1N=C1NCCCS1` [Compound 1269, Xylazine hydrochloride], the “Compound effect (percent receptor signaling in presence of test compound, relative lux units relative to the SCH23390 control)” value is reported as 134.

As to `O=C(NCCNCC(O)COc1ccc(O)cc1)N1CCOCC1` (stereo not drawn) [Compound 1270, Xamoterol hemifumarate], the “Compound effect (percent receptor signaling in presence of test compound, relative lux units relative to the SCH23390 control)” value worked out at 112.

For `Cc1cc(C(C)(C)C)cc(C)c1CC1=NCCN1` [Compound 1271, Xylometazoline hydrochloride], the “Compound effect (percent receptor signaling in presence of test compound, relative lux units relative to the SCH23390 control)” value is recorded as 85.

As for `CCCn1c(=O)c2[nH]c(-c3ccc(OCC(=O)NCCN)cc3)nc2n(CCC)c1=O` [Compound 1272, Xanthine amine congener], the “Compound effect (percent receptor signaling in presence of test compound, relative lux units relative to the SCH23390 control)” value is 90.

Regarding `COC(=O)[C@@H]1[C@H]2C[C@H]3c4[nH]c5ccccc5c4CCN3C[C@@H]2CC[C@@H]1O` [Compound 1273, Yohimbine hydrochloride], the “Compound effect (percent receptor signaling in presence of test compound, relative lux units relative to the SCH23390 control)” value is on record as 85.

For `OCc1ccc(-c2nn(Cc3ccccc3)c3ccccc23)o1` [Compound 1275, YC-1], the “Compound effect (percent receptor signaling in presence of test compound, relative lux units relative to the SCH23390 control)” value was 136.

Regarding `CCCOc1ccccc1-c1nc2nn[nH]c2c(=O)[nH]1` [Compound 1276, Zaprinast], the “Compound effect (percent receptor signaling in presence of test compound, relative lux units relative to the SCH23390 control)” value amounted to 115.

For the compound `NS(=O)(=O)Cc1noc2ccccc12` [Compound 1277, Zonisamide sodium], the “Compound effect (percent receptor signaling in presence of test compound, relative lux units relative to the SCH23390 control)” value is 130.

Consider `COc1cc(-c2ccc(=O)[nH]n2)ccc1OC(F)F` [Compound 1278, Zardaverine], for which the “Compound effect (percent receptor signaling in presence of test compound, relative lux units relative to the SCH23390 control)” value was determined as 125.

In the case of `CN1CCN(C(=O)OC2c3nccnc3C(=O)N2c2ccc(Cl)cn2)CC1` (stereo not drawn) [Compound 1279, Zopiclone], the “Compound effect (percent receptor signaling in presence of test compound, relative lux units relative to the SCH23390 control)” value turned out to be 99.

With `CN(C)C/C=C(/c1ccc(Br)cc1)c1cccnc1` [Compound 1280, Zimelidine dihydrochloride], the “Compound effect (percent receptor signaling in presence of test compound, relative lux units relative to the SCH23390 control)” value is 80.

With “(-)-Bicuculline methbromide, 1(S), 9(R) [Compound 202]”, the “Compound effect (percent receptor signaling in presence of test compound, relative lux units relative to the SCH23390 control)” value is listed as 94.

Take (-)-Eseroline fumarate [Compound 504]: the “Compound effect (percent receptor signaling in presence of test compound, relative lux units relative to the SCH23390 control)” value is 56.

For the compound “(-)-Scopolamine methyl nitrate [Compound 1087]”, the “Compound effect (percent receptor signaling in presence of test compound, relative lux units relative to the SCH23390 control)” value was 113.

Turning to “Adenosine 3',5'-cyclic monophosphate [Compound 105]”, the “Compound effect (percent receptor signaling in presence of test compound, relative lux units relative to the SCH23390 control)” value is given as 100.

For the compound “Histamine, R(-)-alpha-methyl-, dihydrochloride [Compound 622]”, the “Compound effect (percent receptor signaling in presence of test compound, relative lux units relative to the SCH23390 control)” value came out at 127.

Consider MHPG piperazine [Compound 577], for which the “Compound effect (percent receptor signaling in presence of test compound, relative lux units relative to the SCH23390 control)” value amounted to 104.

NCS-356 [Compound 849]: the “Compound effect (percent receptor signaling in presence of test compound, relative lux units relative to the SCH23390 control)” value came to 99.

Take NS 521 oxalate [Compound 869]: the “Compound effect (percent receptor signaling in presence of test compound, relative lux units relative to the SCH23390 control)” value is recorded as 75.

With OXA-22 iodide [Compound 326], the “Compound effect (percent receptor signaling in presence of test compound, relative lux units relative to the SCH23390 control)” value stood at 88.

Consider Oligomycin A [Compound 906], for which the “Compound effect (percent receptor signaling in presence of test compound, relative lux units relative to the SCH23390 control)” value is reported as 82.

With “Phenylbenzene-omega-phosphono-alpha-amino acid [Compound 1021]”, the “Compound effect (percent receptor signaling in presence of test compound, relative lux units relative to the SCH23390 control)” value came out at 95.

As for Picrotoxin [Compound 924], the “Compound effect (percent receptor signaling in presence of test compound, relative lux units relative to the SCH23390 control)” value stood at 98.

As for “R(-)-Apocodeine hydrochloride [Compound 435]”, the “Compound effect (percent receptor signaling in presence of test compound, relative lux units relative to the SCH23390 control)” value stood at 98.

On to R(-)-Me5 [Compound 734], for which the “Compound effect (percent receptor signaling in presence of test compound, relative lux units relative to the SCH23390 control)” value came out at 93.

For the compound “R(-)-Propylnorapomorphine hydrochloride [Compound 436]”, the “Compound effect (percent receptor signaling in presence of test compound, relative lux units relative to the SCH23390 control)” value is listed as 99.

On to “R-(-)-Deprenyl hydrochloride [Compound 813]”, for which the “Compound effect (percent receptor signaling in presence of test compound, relative lux units relative to the SCH23390 control)” value is 93.

Take “R-(-)-Desmethyldeprenyl hydrochloride [Compound 407]”: the “Compound effect (percent receptor signaling in presence of test compound, relative lux units relative to the SCH23390 control)” value is listed as 90.

As for S(-)-Timolol maleate [Compound 1191], the “Compound effect (percent receptor signaling in presence of test compound, relative lux units relative to the SCH23390 control)” value was 88.

Turning to SB 224289 hydrochloride [Compound 1142], the “Compound effect (percent receptor signaling in presence of test compound, relative lux units relative to the SCH23390 control)” value was 95.

Consider SKF 95282 dimaleate [Compound 1237], for which the “Compound effect (percent receptor signaling in presence of test compound, relative lux units relative to the SCH23390 control)” value is on record as 96.

Consider “Seglitide [Compound 1079, reference compound]”, for which the “Compound effect (percent receptor signaling in presence of test compound, relative lux units relative to the SCH23390 control)” value turned out to be 102.

Take “VER-3323 hemifumarate salt [Compound 706]”: the “Compound effect (percent receptor signaling in presence of test compound, relative lux units relative to the SCH23390 control)” value is 82.

For the compound WB 64 [Compound 1263], the “Compound effect (percent receptor signaling in presence of test compound, relative lux units relative to the SCH23390 control)” value turned out to be 83.

Still in this test, the particulars now being: 10 µM compound, 300 nM dopamine, 2 hr; hit = compound effect <20.
As to `N[C@@H](Cn1ccc(=O)[nH]c1=O)C(=O)O` [Compound 1266, S(-)-Willardiine], the “Compound effect (percent receptor signaling in presence of test compound, relative lux units relative to the SCH23390 control)” value is on record as 99%.

For the compound `COc1ccccc1N1CCN(CCN(C(=O)C2CCCCC2)c2ccccn2)CC1.O=C(O)/C=C\C(=O)O` [Compound 1267, WAY-100635 maleate], the “Compound effect (percent receptor signaling in presence of test compound, relative lux units relative to the SCH23390 control)” value was 101%.

For `N[C@@H](Cn1cc(I)c(=O)[nH]c1=O)C(=O)O` [Compound 1268, S-5-Iodowillardiine], the “Compound effect (percent receptor signaling in presence of test compound, relative lux units relative to the SCH23390 control)” value turned out to be 130%.

For `COc1ccc(CCN(C)CCc2ccc(OC)c(OC)c2)cc1OC.Cl` [Compound 1274, YS-035 hydrochloride], the “Compound effect (percent receptor signaling in presence of test compound, relative lux units relative to the SCH23390 control)” value worked out at 93%.

Regarding (+)-Catechin Hydrate [Compound 230], the “Compound effect (percent receptor signaling in presence of test compound, relative lux units relative to the SCH23390 control)” value is 111%.

As for (-)-Perillic acid [Compound 965], the “Compound effect (percent receptor signaling in presence of test compound, relative lux units relative to the SCH23390 control)” value came to 87%.

In the case of “(±)-PD 128,907 hydrochloride [Compound 1024]”, the “Compound effect (percent receptor signaling in presence of test compound, relative lux units relative to the SCH23390 control)” value worked out at 95%.

Turning to (±)-Pindobind [Compound 1010], the “Compound effect (percent receptor signaling in presence of test compound, relative lux units relative to the SCH23390 control)” value is 65%.

As for Ceramide [Compound 235], the “Compound effect (percent receptor signaling in presence of test compound, relative lux units relative to the SCH23390 control)” value was found to be 87%.

With Cortexolone maleate [Compound 1081], the “Compound effect (percent receptor signaling in presence of test compound, relative lux units relative to the SCH23390 control)” value amounted to 83%.

Take “Dequalinium analog, C-14 linker [Compound 368]”: the “Compound effect (percent receptor signaling in presence of test compound, relative lux units relative to the SCH23390 control)” value was determined as 39%.

For IMID-4F hydrochloride [Compound 639], the “Compound effect (percent receptor signaling in presence of test compound, relative lux units relative to the SCH23390 control)” value was found to be 109%.

Turning to “L-Leucinethiol, oxidized dihydrochloride [Compound 709]”, the “Compound effect (percent receptor signaling in presence of test compound, relative lux units relative to the SCH23390 control)” value is on record as 81%.

“MDL 26,630 trihydrochloride [Compound 828]”: the “Compound effect (percent receptor signaling in presence of test compound, relative lux units relative to the SCH23390 control)” value was determined as 93%.

Consider Pyrazinecarboxamide [Compound 966], for which the “Compound effect (percent receptor signaling in presence of test compound, relative lux units relative to the SCH23390 control)” value amounted to 79%.

As for “R(-)-2,10,11-Trihydroxy-N-propylnoraporphine hydrobromide [Compound 438]”, the “Compound effect (percent receptor signaling in presence of test compound, relative lux units relative to the SCH23390 control)” value is reported as 88%.

As to “R(-)-Isoproterenol (+)-bitartrate [Compound 640]”, the “Compound effect (percent receptor signaling in presence of test compound, relative lux units relative to the SCH23390 control)” value was determined as 118%.

On to “S-Nitroso-N-acetylpenicillamine [Compound 846]”, for which the “Compound effect (percent receptor signaling in presence of test compound, relative lux units relative to the SCH23390 control)” value came out at 88%.

Regarding SKF 83565 hydrobromide [Compound 1096], the “Compound effect (percent receptor signaling in presence of test compound, relative lux units relative to the SCH23390 control)” value amounted to 57%.

TFPI hydrochloride [Compound 1197]: the “Compound effect (percent receptor signaling in presence of test compound, relative lux units relative to the SCH23390 control)” value is 96%.

“cis-(±)-8-OH-PBZI hydrobromide [Compound 918]”: the “Compound effect (percent receptor signaling in presence of test compound, relative lux units relative to the SCH23390 control)” value was 88%.
